Experiments:
M4 receptor = assay: Ca-dependent Cl response in Xenopus oocytes coexpressing M4 receptor and chimeric Gqα subunit (G11α/G14α); type: cell-based; conditions: Xenopus oocyte, chimeric Gqα subunit coexpressed, clamped at −60 mV by TEVC, FIG. 5
Method: They were subjected to coexpression in Xenopus oocytes. […] Res. Commun. 201 (2), 894-901 (1994).
Thereafter, oocytes were cultured.

H2 receptor = H2 receptor (Homo sapiens, UniProt P25021); conditions: Xenopus oocyte
Sequence of H2 receptor (P25021 whole entry): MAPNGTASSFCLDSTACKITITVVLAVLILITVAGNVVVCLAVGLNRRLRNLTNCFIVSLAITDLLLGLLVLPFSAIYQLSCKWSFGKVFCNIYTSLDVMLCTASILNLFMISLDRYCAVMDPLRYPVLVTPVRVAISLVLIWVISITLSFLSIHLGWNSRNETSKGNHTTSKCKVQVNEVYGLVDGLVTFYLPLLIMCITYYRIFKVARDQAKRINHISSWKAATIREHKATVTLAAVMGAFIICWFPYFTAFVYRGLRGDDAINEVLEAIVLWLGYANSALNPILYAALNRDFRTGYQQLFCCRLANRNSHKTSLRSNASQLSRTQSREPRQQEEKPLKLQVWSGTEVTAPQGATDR
Text: Oocytes removed from a female Xenopus were selected by a conventional method. RNA encoding the H1 and H2 receptors, M1 to M5 receptors, δ opioid receptors, or mGlu1 receptors that were synthesized in vitro were transfected into the selected oocyte together with RNA encoding a chimeric Gqα subunit constituted by a portion of the G11 protein α subunit and a portion of the G14 protein α subunit that was similarly synthesized. As a control, an oocyte to which RNA of the chimeric Gqα subunit was not to be transfected was prepared. Thereafter, oocytes were cultured.
The cultured oocytes were clamped at −60 mV by TEVC. […] The occurrence of Ca-dependent Cl response was then assayed.
RNA encoding the H2 receptor was transfected in the oocytes. Simultaneously or 24 hours thereafter, RNA encoding the chimeric Gqα subunit constituted by a portion of the G11α subunit and a portion of the G14α subunit was transfected therein. Thereafter, the ligand responses of these oocytes were assayed by the method described in Example 1.

Row | response generated by ligand, chimeric Gqα RNA transfected 24 hours after GPCR RNA compared with simultaneous transfection (H2 receptor; 10 μM ligand, FIG. 6) | SMILES | response generated by ligand stimulus at various concentration levels (M4 receptor) | response generated by ligand stimulus at various concentration levels (H2 receptor; chimeric Gqα subunit coexpressed, clamped at −60 mV by TEVC, FIG. 5)
1 |  | CC(=O)OCC[N+](C)(C)C [Ach] | correlations between ligand concentration and size of response | 
2 | greatly increased | NCCc1c[nH]cn1 [histamine] |  | correlations between ligand concentration and size of response
